Source: US9090583B2, “Benzopyrone estrogen receptor regulator” (BEIJING SHENOGEN PHARMA GROUP LTD., priority 2010, dated 2015)
Converted amounts (≈) assume the structure as drawn. Like-named read-outs stand apart in the source and are kept apart here.

Tests used:
[1] = test system: MDA-MB-231 cells; assay: CellTiter-Glo Luminescent Cell Viability Assay on ER-negative breast cancer MDA-MB-231 cells; format: cell-based; conditions: average ± standard deviation when tested more than 3 times, read-out: Inhibition of the viability of breast cancer cells, IC50
Protocol: A: In Vitro CellTiter-Glo® Luminescent Cell Viability Assay on ER-Negative Breast Cancer MDA-MB-231 Cells:
MDA-MB-231 cells were maintained at 37° C., under 5% CO2 atmosphere in DMEM containing 10% fetal calf serum. The cells were seeded on 96-well plate at a density of 6×10^3 cells per well. MDA-MB-231 cells were treated with a test compound dissolved in DMSO at the concentrations of zero, 0.3 μM, 0.5 μM, 1 μM, 2 μM, 3 μM, 5 μM, 10 μM, 20 μM, 30 μM, 50 μM and 100 μM for 72 hours. Treated cells were examined by CellTiter-Glo® Luminescent Cell Viability Assay Kit (Promega), and luminescence values were recorded with Envision.

[2] = test system: MCF7 cells; assay: CellTiter-Glo Luminescent Cell Viability Assay on ER-positive breast cancer MCF-7 cells; format: cell-based, human; conditions: average ± standard deviation when tested more than 3 times, read-out: Inhibition of the viability of breast cancer cells, IC50
Excerpt: B: In Vitro CellTiter-Glo® Luminescent Cell Viability Assay on ER-Positive Breast Cancer MCF-7 Cells:
MCF7 cells are breast cancer cell lines that highly express ER-66, ER-46 and ER-36. (Relevance of breast cancer cell lines as models for breast tumours: an update. Marc Lacroix, Guy Leclercq, Breast Cancer Research and Treatment (2004) 83, 249-289; Wang et al., Proc. Natl. Acad. Sci. U.S.A. 103:9063-9068 (2006)). MCF7 cells were obtained from ATCC and maintained in Dulbecco's Modified Eagles Medium (DMEM) and 10% fetal calf serum at 37° C., under 5% CO2 atmosphere. The cells were seeded on 96-well plate at a density of 6×10^3 cells per well. MCF7 cells were treated with a test compound dissolved in DMSO at the concentrations of zero, 0.3 μM, 0.5 μM, 1 μM, 2 μM, 3 μM, 5 μM, 10 μM, 20 μM, 30 μM, 50 μM and 100 μM for 72 hours. Treated cells were examined by CellTiter-Glo® Luminescent Cell Viability Assay Kit (Promega), and luminescence values were recorded with Envision.

[3] = test system: Hep3B2.1-7 cells; assay: MTT assay, in vitro growth of liver cancer Hep3B2.1-7 cells; format: cell-based; conditions: 72 hours; for IC50: read-out: Inhibition on liver cancer cells, IC50
Protocol: The liver cancer Hep3B2.1-7 cells were obtained from ATCC. Cells were incubated in 1640 culture medium with 5% fetal calf serum and 100 U/ml double-antibody in a cell incubator at 37° C., 5% CO2 atmosphere and passaged via conventional methods. The sample was dissolved in DMSO, formulated into 50 mg/ml stocking solution, and stored at 4° C. The test solutions at 50, 25, 12.5 and 6.25 μg/ml were formulated with culture medium immediately before use.
The adherent cells were digested with cell digestive solution, and then the exfoliated cells were collected and counted. The cell suspension was formulated with 1640 culture medium containing 5% fetal calf serum (5.0×10^4/ml). The cell suspension was seeded on 96-well plate with 100 μl/well, and maintained in a cell incubator at 37° C., 5% CO2 atmosphere for 24 hours. After that, the compounds at various concentrations were added, where solvent was taken as negative control and Taxol as positive control. 10 μl MTT (5 mg/ml) was added after 72 hours. The supernatant was removed after cultivation for 3 hours more, 150 μl DMSO was added and the formazan was dissolved on shaking. OD values were measured at 570 nm after homogeneous mixing, and inhibition rate and IC50 values were calculated based on the mean of OD values from 3 wells.

Row | Compound | IC50 ([1]; 72 hours) [µM] | IC50 ([2]; 72 hours) [µM] | Inhibition on liver cancer cells, IC50 [3] [µg/mL] | IC50 ([1]; Homo sapiens, MDA-MB-231, 72 h) [µM] | IC50 ([2]; Homo sapiens, MCF7, 72 h) [µM] | IC50 [3] [µg/mL]
1 | 2-(4-fluoromethoxyphenyl)-5,7-dihydroxy-3-methoxy-6,8-di(3-methyl-2-buten-1-yl)-4H-benzopyran-4-one [Compound 61] | 3.28 | 3.52 | 0.04 | – | – | –
2 | COc1c(-c2ccc(Cl)cc2)oc2c(CC=C(C)C)c(O)c(CC=C(C)C)c(O)c2c1=O [Compound 10, 2-(4-chlorophenyl)-5,7-dihydroxy-3-methoxy-6,8-di(3-methyl-2-butylene-1-yl)-4H-benzopyran-4-one] | 8.89 | > 100 | 9.43 | – | – | –
3 | COc1c(-c2ccc(C#N)cc2)oc2c(CC=C(C)C)c(O)c(CC=C(C)C)c(O)c2c1=O [Compound 57, 4-[5,7-dihydroxy-3-methoxy-6,8-di(3-methyl-2-butenyl)-4-oxo-4H-benzopyran-2-yl]benzonitrile] | – | – | – | 2.85 | 4.84 | 21 (≈ 47.2 µM)
4 | COc1c(-c2ccc(C(N)=O)cc2)oc2c(CC=C(C)C)c(O)c(CC=C(C)C)c(O)c2c1=O [Compound 60, 4-[5,7-dihydroxy-3-methoxy-6,8-di(3-methyl-2-buten-1-yl)-4-oxo-4H-benzopyran-2-yl]benzamide] | – | – | – | 6.36 | 3.02 | 9.95 (≈ 21.5 µM)
5 | COc1c(-c2ccc(S(N)(=O)=O)cc2)oc2c(CC=C(C)C)c(O)c(CC=C(C)C)c(O)c2c1=O [Compound 63, 4-[5,7-dihydroxy-3-methoxy-6,8-di(3-methyl-2-buten-1-yl)-4-oxo-4H-benzopyran-2-yl]benzene sulfonamide] | – | – | – | 4.87 | 6.06 | 14 (≈ 28 µM)
6 | COc1c(-c2ccc(C(C)(C)O)cc2)oc2c(CC=C(C)C)c(O)c(CC=C(C)C)c(O)c2c1=O [Compound 66] | 2.86 | 3.91 | 0.24 | – | – | –
7 | COc1c(-c2ccc(S(=O)(=O)N(C)C)cc2)oc2c(CC=C(C)C)c(O)c(CC=C(C)C)c(O)c2c1=O [Compound 69, 4-[5,7-dihydroxy-3-methoxy-6,8-di(3-methyl-2-buten-1-yl)-4-oxo-4H-benzopyran-2-yl]-N,N-dimethylbenzene sulfonamide] | – | – | – | 1.87 | > 100 | 3.89 (≈ 7.37 µM)
8 | CNS(=O)(=O)c1ccc(-c2oc3c(CC=C(C)C)c(O)c(CC=C(C)C)c(O)c3c(=O)c2OC)cc1 [Compound 70, 4-[5,7-dihydroxy-3-methoxy-6,8-di(3-methyl-2-buten-1-yl)-4-oxo-4H-benzopyran-2-yl]N-methylbenzene sulfonamide] | – | – | – | 7.64 | > 100 | 0.39 (≈ 0.759 µM)
9 | COc1c(-c2ccc(O)c(C)c2)oc2c(CC=C(C)C)c(O)c(CC=C(C)C)c(O)c2c1=O [Compound 75, 2-(3-methyl-4-hydroxyphenyl)-5,7-dihydroxy-3-methoxy-6,8-di(3-methyl-2-buten-1-yl)-4H-benzopyran-4-one] | – | – | – | 11.6 | 49 | 0.83 (≈ 1.84 µM)
10 | COc1c(-c2ccc(O)c(Cl)c2)oc2c(CC=C(C)C)c(O)c(CC=C(C)C)c(O)c2c1=O [Compound 76, 2-(3-chloro-4-hydroxyphenyl)-5,7-dihydroxy-3-methoxy-6,8-di(3-methyl-2-buten-1-yl)-4H-benzopyran-4-one] | – | – | – | 3 | 4.08 | 5.79 (≈ 12.3 µM)
11 | COc1c(-c2ccc(O)c(C(F)(F)F)c2)oc2c(CC=C(C)C)c(O)c(CC=C(C)C)c(O)c2c1=O [Compound 77, 2-(3-trifluoromethyl-4-hydroxyphenyl)-5,7-dihydroxy-3-methoxy-6,8-di(3-methyl-2-buten-1-yl)-4H-benzopyran-4-one] | – | – | – | 15.4 | > 100 | 3.08 (≈ 6.11 µM)
12 | COc1c(-c2ccc(F)c(O)c2)oc2c(CC=C(C)C)c(O)c(CC=C(C)C)c(O)c2c1=O [Compound 78, 2-(3-hydroxy-4-fluorophenyl)-5,7-dihydroxy-3-methoxy-6,8-di(3-methyl-2-buten-1-yl)-4H-benzopyran-4-one] | – | – | – | 5.36 | 5.46 | 8.95 (≈ 19.7 µM)
13 | COc1c(-c2ccc(O)c(F)c2)oc2c(CC=C(C)C)c(O)c(CC=C(C)C)c(O)c2c1=O [Compound 79, 2-(3-fluoro-4-hydroxyphenyl)-5,7-dihydroxy-3-methoxy-6,8-di(3-methyl-2-buten-1-yl)-4H-benzopyran-4-one] | – | – | – | 3.64 | 5.33 | 8.23 (≈ 18.1 µM)
14 | CC(C)=CCc1c(O)c(CC=C(C)C)c2oc(-c3ccc(Cl)c(F)c3)cc(=O)c2c1O [Compound 86, 2-(3-fluoro-4-chlorophenyl)-5,7-dihydroxy-6,8-di(3-methyl-2-buten-1-yl)-4H-benzopyran-4-one] | – | – | – | > 100 | > 100 | –
15 | CC(C)=CCc1c(O)c(CC=C(C)C)c2oc(-c3ccc(C)cc3)cc(=O)c2c1O [Compound 87, 2-(4-methylphenyl)-5,7-dihydroxy-6,8-di(3-methyl-2-buten-1-yl)-4H-benzopyran-4-one] | – | – | – | 16.3 | > 100 | –
16 | CC(C)=CCc1c(O)c(CC=C(C)C)c2oc(-c3ccc(Cl)c(Cl)c3)cc(=O)c2c1O [Compound 88, 2-(3,4-dichlorophenyl)-5,7-dihydroxy-6,8-di(3-methyl-2-buten-1-yl)-4H-benzopyran-4-one] | – | – | – | 16.1 | > 100 | –
17 | CC(C)=CCc1c(O)c(CC=C(C)C)c2oc(-c3ccc(F)cc3)cc(=O)c2c1O [Compound 89, 2-(4-fluorophenyl)-5,7-dihydroxy-6,8-di(3-methyl-2-buten-1-yl)-4H-benzopyran-4-one] | – | – | – | > 100 | > 100 | –
18 | CC(C)=CCc1c(O)c(CC=C(C)C)c2oc(-c3ccc(Cl)cc3)cc(=O)c2c1O [Compound 91, 2-(4-chlorophenyl)-5,7-dihydroxy-6,8-di(3-methyl-2-buten-1-yl)-4H-benzopyran-4-one] | – | – | – | 8.89 | > 100 | –
19 | CC(C)=CCc1c(O)c(CC=C(C)C)c2oc(-c3cccnc3)cc(=O)c2c1O [Compound 92, 2-(pyridin-3-yl)-5,7-dihydroxy-6,8-di(3-methyl-2-buten-1-yl)-4H-benzopyran-4-one] | – | – | – | 21.5 | > 100 | –
20 | CC(C)=CCc1c(O)c(CC=C(C)C)c2oc(-c3ccc(F)c(F)c3)c(C)c(=O)c2c1O [Compound 93, 2-(3,4-difluorophenyl)-3-methyl-5,7-dihydroxy-6,8-di(3-methyl-2-buten-1-yl)-4H-benzopyran-4-one] | – | – | – | 27.5 | 15.6 | –
21 | CC(C)=CCc1c(O)c(CC=C(C)C)c2oc(-c3ccc(Cl)c(F)c3)c(C)c(=O)c2c1O [Compound 94, 2-(3-fluoro-4-chlorophenyl)-3-methyl-5,7-dihydroxy-6,8-di(3-methyl-2-buten-1-yl)-4H-benzopyran-4-one] | – | – | – | 31.3 | 15.6 | –
22 | CC(C)=CCc1c(O)c(CC=C(C)C)c2oc(-c3ccc(F)c(F)c3)c(O)c(=O)c2c1O [Compound 95, 2-(3,4-difluorophenyl)-3,5,7-trihydroxy-6,8-di(3-methyl-2-buten-1-yl)-4H-benzopyran-4-one] | – | – | – | 10.4 ± 1.93 | 6.62 ± 1.93 | –
23 | CC(C)=CCc1c(O)c(CC=C(C)C)c2oc(-c3ccc(Cl)c(F)c3)c(O)c(=O)c2c1O [Compound 96, 2-(3-fluoro-4-chlorophenyl)-3,5,7-trihydroxy-6,8-di(3-methyl-2-buten-1-yl)-4H-benzopyran-4-one] | – | – | – | 10.4 | > 100 | –
24 | CC(=O)O[C@H]1C(=O)[C@@]2(C)[C@H]([C@H](OC(=O)c3ccccc3)[C@]3(O)C[C@H](OC(=O)[C@H](O)[C@@H](NC(=O)c4ccccc4)c4ccccc4)C(C)=C1C3(C)C)[C@]1(OC(C)=O)CO[C@@H]1C[C@@H]2O [Taxol, reference compound] | – | – | – | – | – | 42.8 (≈ 50.1 µM)
